Where two headings read alike, the source gives them in different places.
Legend:
Menin-MLL = Menin-MLL (Homo sapiens (Human), UniProt O00255); test: Determination of binding constants (Ki) to Menin-MLL (HTRF)
hERG = hERG (Homo sapiens (Human), UniProt Q12809); test: Patch clamp assay (hERG tail currents, whole-cell); type: cell-based; details: hERG transfected HEK 293 cells; for hERG % Remaining 30 μM: 30 μM compound; for hERG % Remaining 10 μM: 10 μM compound
Description: The 35 mm culture dishes upon which cells were seeded at a density allowing single cells to be recorded were placed on the dish holder of the microscope and continuously perfused (at approximately 1 mL/min) with the bath solution described in section 4.6. All solutions applied to cells including the pipette solution were maintained at room temperature (19° C. to 30° C.). After formation of a Gigaohm seal between the patch electrodes and individual hERG stably transfected HEK 293 cells (pipette resistance range: 2.0 MΩ2 to 7.0 MΩ; seal resistance range: >1GΩ) the cell membrane across the pipette tip was ruptured to assure electrical access to the cell interior (whole-cell patch-configuration). In case the quality of the seal was poor, the process of seal formation was repeated with a different cell and a new pipette. As soon as a stable seal could be established, hERG outward tail currents were measured upon depolarization of the cell membrane to +20 mV for 2s (activation of channels) from a holding potential of −80 mV and upon subsequent repolarization to −40 mV for 3 s. This voltage protocol (as shown below) was run at least 10 times at intervals of 10 s. If current density was judged to be too low for measurement, another cell was recorded.
During wash-in of the test item the voltage protocol indicated above was run continuously again at 10 s intervals until the steady-state level of block was reached.
The IC50 was determined by fitting the dose response curve with a 2-parameter logistic function (amax=100%).

[1] = HTRF, 0.25 nM H-FL-Menin, 3.2 nM FITC-MLL-4-43, 24 hr incubation, read-out: Menin-MLL Ki HTRF Assay: Ki

Chain of hERG (Q12809 whole entry): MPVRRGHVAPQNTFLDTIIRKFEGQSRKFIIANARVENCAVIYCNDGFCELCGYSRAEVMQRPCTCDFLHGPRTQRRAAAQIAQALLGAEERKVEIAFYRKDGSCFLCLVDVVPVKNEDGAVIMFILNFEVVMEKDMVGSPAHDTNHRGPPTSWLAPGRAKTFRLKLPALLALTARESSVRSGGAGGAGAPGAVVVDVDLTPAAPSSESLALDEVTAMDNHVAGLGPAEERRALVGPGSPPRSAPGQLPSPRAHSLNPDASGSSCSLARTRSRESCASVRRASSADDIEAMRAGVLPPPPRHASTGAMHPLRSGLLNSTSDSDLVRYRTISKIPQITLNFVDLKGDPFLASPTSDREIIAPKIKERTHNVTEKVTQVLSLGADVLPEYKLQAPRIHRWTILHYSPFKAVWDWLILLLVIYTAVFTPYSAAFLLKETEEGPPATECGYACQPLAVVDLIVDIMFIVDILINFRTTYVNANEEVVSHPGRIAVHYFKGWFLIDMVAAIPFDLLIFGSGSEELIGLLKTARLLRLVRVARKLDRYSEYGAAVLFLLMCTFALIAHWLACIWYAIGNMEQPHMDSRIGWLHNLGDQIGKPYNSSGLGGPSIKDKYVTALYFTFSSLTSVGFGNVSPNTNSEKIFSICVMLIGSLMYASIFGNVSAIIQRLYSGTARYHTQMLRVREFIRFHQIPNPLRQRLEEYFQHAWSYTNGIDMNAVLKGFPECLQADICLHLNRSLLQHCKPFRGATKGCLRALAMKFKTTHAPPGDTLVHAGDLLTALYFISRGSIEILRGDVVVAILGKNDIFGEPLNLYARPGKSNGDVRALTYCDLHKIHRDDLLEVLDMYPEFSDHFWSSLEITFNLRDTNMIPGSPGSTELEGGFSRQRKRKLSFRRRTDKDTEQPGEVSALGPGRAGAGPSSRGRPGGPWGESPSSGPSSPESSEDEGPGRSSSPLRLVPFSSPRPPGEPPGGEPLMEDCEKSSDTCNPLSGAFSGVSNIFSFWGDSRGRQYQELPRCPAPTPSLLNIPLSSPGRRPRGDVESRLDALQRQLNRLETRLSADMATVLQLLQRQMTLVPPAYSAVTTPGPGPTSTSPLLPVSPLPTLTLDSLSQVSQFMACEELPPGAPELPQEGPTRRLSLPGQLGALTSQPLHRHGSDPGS
Chain of Menin-MLL (O00255 whole entry): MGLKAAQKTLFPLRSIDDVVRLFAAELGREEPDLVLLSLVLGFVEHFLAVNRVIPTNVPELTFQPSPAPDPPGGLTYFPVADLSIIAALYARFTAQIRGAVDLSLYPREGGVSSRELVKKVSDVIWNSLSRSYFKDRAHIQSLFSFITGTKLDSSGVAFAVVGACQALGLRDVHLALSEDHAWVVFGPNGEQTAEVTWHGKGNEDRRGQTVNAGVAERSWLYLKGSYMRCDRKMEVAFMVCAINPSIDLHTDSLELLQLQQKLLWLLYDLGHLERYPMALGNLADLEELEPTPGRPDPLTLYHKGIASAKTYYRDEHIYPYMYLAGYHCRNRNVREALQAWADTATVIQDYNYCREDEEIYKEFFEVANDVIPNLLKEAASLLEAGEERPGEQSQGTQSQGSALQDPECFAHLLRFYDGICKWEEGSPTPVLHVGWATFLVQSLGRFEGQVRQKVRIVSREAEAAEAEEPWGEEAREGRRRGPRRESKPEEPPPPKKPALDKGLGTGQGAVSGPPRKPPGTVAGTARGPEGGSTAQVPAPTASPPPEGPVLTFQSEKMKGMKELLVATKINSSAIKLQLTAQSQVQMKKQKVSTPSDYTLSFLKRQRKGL

Row | SMILES | Ki (Menin-MLL; [1]) | hERG % Remaining 30 μM (hERG) | hERG % Remaining 10 μM (hERG) | Ki (Menin-MLL) | IC50 (hERG)
1 | CCNS(=O)(=O)N[C@@H]1CC[C@@H](CN2CCC3(CC2)CN(c2ncnnc2Oc2ccc(F)cc2C(=O)N(C(C)C)C(C)C)C3)OC1 [Compound 198] | < 1 nM | +++ (“+++” means ≥66%) |  |  | 
2 | CC(C)N(C(=O)c1cc(F)ccc1Oc1nncnc1N1CC2(CCN(C[C@@H]3CC[C@@H](NS(=O)(=O)N4CCC4)CO3)CC2)C1)C(C)C [Compound 199, 2-((5-(7-(((2S,5R)-5-(Azetidine-1-sulfonamido)tetrahydro-2H-pyran-2-yl)methyl)-2,7-diazaspiro[3.5]nonan-2-yl)-1,2,4-triazin-6-yl)oxy)-5-fluoro-N,N-diisopropylbenzamide] | < 1 nM | +++ (“+++” means ≥66%) |  |  | 
3 | CCN(C(=O)c1cc(F)ccc1Oc1cncnc1N1CC2(CCN(C[C@@H]3CC[C@@H](NS(=O)(=O)N4CCC[C@H]4C)CO3)CC2)C1)C(C)C [Compound 200, N-Ethyl-5-fluoro-N-isopropyl-2-((4-(7-(((2S,5R)-5-(((R)-2-methylpyrrolidine)-1-sulfonamido)tetrahydro-2H-pyran-2-yl)methyl)-2,7-diazaspiro[3.5]nonan-2-yl)pyrimidin-5-yl)oxy)benzamide] | < 1 nM | + (“+” means <33%) | ++ (“++” means ≥33% and <66%) |  | 
4 | CCN(C(=O)c1cc(F)ccc1Oc1cncnc1N1CC2(CCN(C[C@@H]3CC[C@@H](NS(=O)(=O)N4CCC[C@@H]4C)CO3)CC2)C1)C(C)C [Compound 201, N-Ethyl-5-fluoro-N-isopropyl-2-((4-(7-(((2S,5R)-5-(((S)-2-methylpyrrolidine)-1-sulfonamido)tetrahydro-2H-pyran-2-yl)methyl)-2,7-diazaspiro[3.5]nonan-2-yl)pyrimidin-5-yl)oxy)benzamide] | < 1 nM | + (“+” means <33%) | + (“+” means <33%) |  | 
5 | CC(C)N(C(=O)c1cc(F)ccc1Oc1cncnc1N1CC2(CCN(C[C@@H]3CC[C@@H](NS(=O)(=O)N4CCC[C@@H]4C)CO3)CC2)C1)C(C)C [Compound 202, 5-Fluoro-N,N-diisopropyl-2-((4-(7-(((2S,5R)-5-(((S)-2-methylpyrrolidine)-1-sulfonamido)tetrahydro-2H-pyran-2-yl)methyl)-2,7-diazaspiro[3.5]nonan-2-yl)pyrimidin-5-yl)oxy)benzamide] | < 1 nM | + (“+” means <33%) |  |  | 
6 | CC(C)N(C(=O)c1cc(F)ccc1Oc1cncnc1N1CC2(CCN(C[C@@H]3CC[C@@H](NS(=O)(=O)N4CCC[C@H]4C)CO3)CC2)C1)C(C)C [Compound 203, 5-Fluoro-N,N-diisopropyl-2-((4-(7-(((2S,5R)-5-(((R)-2-methylpyrrolidine)-1-sulfonamido)tetrahydro-2H-pyran-2-yl)methyl)-2,7-diazaspiro[3.5]nonan-2-yl)pyrimidin-5-yl)oxy)benzamide] | < 1 nM | + (“+” means <33%) |  |  | 
7 | C[C@@H]1COC[C@@H](C)N1C(=O)c1cc(F)ccc1Oc1cncnc1N1CC2(CCN(C[C@@H]3CC[C@@H](NS(=O)(=O)N4CCC[C@H]4C)CO3)CC2)C1 [Compound 208, (R)-N-((3R,6S)-6-((2-(5-(2-((3R,5R)-3,5-Dimethylmorpholine-4-carbonyl)-4-fluorophenoxy)pyrimidin-4-yl)-2,7-diazaspiro[3.5]nonan-7-yl)methyl)tetrahydro-2H-pyran-3-yl)-2-methylpyrrolidine-1-sulfonamide] | < 1 nM | +++ (“+++” means ≥66%) |  |  | 
8 | C[C@@H]1COC[C@@H](C)N1C(=O)c1cc(F)ccc1Oc1cncnc1N1CC2(CCN(C[C@@H]3CC[C@@H](NS(=O)(=O)N4CCC[C@@H]4C)CO3)CC2)C1 [Compound 209, (S)-N-((3R,6S)-6-((2-(5-(2-((3R,5R)-3,5-Dimethylmorpholine-4-carbonyl)-4-fluorophenoxy)pyrimidin-4-yl)-2,7-diazaspiro[3.5]nonan-7-yl)methyl)tetrahydro-2H-pyran-3-yl)-2-methylpyrrolidine-1-sulfonamide] | < 1 nM | +++ (“+++” means ≥66%) |  |  | 
9 | CO[C@H]1CCN(S(=O)(=O)N[C@@H]2CC[C@@H](CN3CCC4(CC3)CN(c3ncncc3Oc3ccc(F)cc3C(=O)N(C(C)C)C(C)C)C4)OC2)C1 [Compound 210, 5-Fluoro-N,N-diisopropyl-2-((4-(7-(((2S,5R)-5-(((S)-3-methoxypyrrolidine)-1-sulfonamido)tetrahydro-2H-pyran-2-yl)methyl)-2,7-diazaspiro[3.5]nonan-2-yl)pyrimidin-5-yl)oxy)benzamide] | < 1 nM | +++ (“+++” means ≥66%) |  |  | 
10 | CO[C@@H]1CCN(S(=O)(=O)N[C@@H]2CC[C@@H](CN3CCC4(CC3)CN(c3ncncc3Oc3ccc(F)cc3C(=O)N(C(C)C)C(C)C)C4)OC2)C1 [Compound 211, 5-Fluoro-N,N-diisopropyl-2-((4-(7-(((2S,5R)-5-(((R)-3-methoxypyrrolidine)-1-sulfonamido)tetrahydro-2H-pyran-2-yl)methyl)-2,7-diazaspiro[3.5]nonan-2-yl)pyrimidin-5-yl)oxy)benzamide] | < 1 nM | +++ (“+++” means ≥66%) |  |  | 
11 | CC(C)N(CC(F)F)C(=O)c1cc(F)ccc1Oc1cncnc1N1CC2(CCN(C[C@@H]3CC[C@@H](NS(=O)(=O)N(C)CCCO)CO3)CC2)C1 [Compound 214, N-(2,2-difluoroethyl)-5-fluoro-2-((4-(7-(((2S,5R)-5-((N-(3-hydroxypropyl)-N-methylsulfamoyl)amino)tetrahydro-2H-pyran-2-yl)methyl)-2,7-diazaspiro[3.5]nonan-2-yl)pyrimidin-5-yl)oxy)-N-isopropylbenzamide] | < 1 nM | +++ (“+++” means ≥66%) |  |  | 
12 | CCN(C(=O)c1cc(F)ccc1Oc1cncnc1N1CC2(CCN(C[C@@H]3CC[C@@H](NS(=O)(=O)c4ccc(=O)[nH]c4C)CO3)CC2)C1)C(C)C [Compound 217, N-Ethyl-5-fluoro-N-isopropyl-2-((4-(7-(((2S,5R)-5-((2-methyl-6-oxo-1,6-dihydropyridine)-3-sulfonamido)tetrahydro-2H-pyran-2-yl)methyl)-2,7-diazaspiro[3.5]nonan-2-yl)pyrimidin-5-yl)oxy)benzamide] | < 1 nM | +++ (“+++” means ≥66%) |  |  | 
13 | CCN(C(=O)c1cc(F)ccc1Oc1cncnc1N1CC2(CCN(C[C@@H]3CC[C@@H](NS(=O)(=O)c4c[nH]c(=O)c(C)c4)CO3)CC2)C1)C(C)C [Compound 218, N-Ethyl-5-fluoro-N-isopropyl-2-((4-(7-(((2S,5R)-5-((5-methyl-6-oxo-1,6-dihydropyridine)-3-sulfonamido)tetrahydro-2H-pyran-2-yl)methyl)-2,7-diazaspiro[3.5]nonan-2-yl)pyrimidin-5-yl)oxy)benzamide] | < 1 nM | + (“+” means <33%) |  |  | 
14 | CC(C)N(C(=O)c1cc(F)ccc1Oc1cncnc1N1CC2(CCN(C[C@@H]3CC[C@@H](NS(=O)(=O)N4CC5(CCOC5)C4)CO3)CC2)C1)C(C)C [Compound 223, 2-((4-(7-(((2S,5R)-5-(6-Oxa-2-azaspiro[3.4]octane-2-sulfonamido)tetrahydro-2H-pyran-2-yl)methyl)-2,7-diazaspiro[3.5]nonan-2-yl)pyrimidin-5-yl)oxy)-5-fluoro-N,N-diisopropylbenzamide] | < 1 nM | +++ (“+++” means ≥66%) |  |  | 
15 | CC(C)N(C(=O)c1cc(F)ccc1Oc1cncnc1N1CC2(CCN(C[C@@H]3CC[C@@H](NS(=O)(=O)N4CC5COCC5C4)CO3)CC2)C1)C(C)C (stereo partly drawn) [Compound 224, 5-Fluoro-2-((4-(7-(((2S,5R)-5-((hexahydro-1H-furo[3,4-c]pyrrole)-5-sulfonamido)tetrahydro-2H-pyran-2-yl)methyl)-2,7-diazaspiro[3.5]nonan-2-yl)pyrimidin-5-yl)oxy)-N,N-diisopropylbenzamide] | < 1 nM | +++ (“+++” means ≥66%) |  |  | 
16 | CCS(=O)(=NC)N[C@@H]1CC[C@@H](CN2CCC3(CC2)CN(c2ncncc2Oc2ccc(F)cc2C(=O)N(C(C)C)C(C)C)C3)OC1 (stereo partly drawn) [Compound 231, 5-Fluoro-N,N-diisopropyl-2-((4-(7-(((2S,5R)-5-(N′-methylethylsulfonoamidimidamido)tetrahydro-2H-pyran-2-yl)methyl)-2,7-diazaspiro[3.5]nonan-2-yl)pyrimidin-5-yl)oxy)benzamide] |  | +++ (“+++” means ≥66%) |  | < 1 nM | 
17 | CC(C)N(CC(F)F)C(=O)c1cc(F)ccc1Oc1cncnc1N1CC2(CCN(C[C@@H]3CC[C@@H](NS(=O)(=O)NCC(F)F)CO3)CC2)C1 [Compound 235, N-(2,2-Difluoroethyl)-2-((4-(7-(((2S,5R)-5-((N-(2,2-difluoroethyl)sulfamoyl)amino)tetrahydro-2H-pyran-2-yl)methyl)-2,7-diazaspiro[3.5]nonan-2-yl)pyrimidin-5-yl)oxy)-5-fluoro-N-isopropylbenzamide] |  | +++ (“+++” means ≥66%) |  | < 1 nM | 
18 | CC(C)N(CC(F)F)C(=O)c1cc(F)ccc1Oc1cncnc1N1CC2(CCN(C[C@@H]3CC[C@@H](NS(=O)(=O)N(C)CCO)CO3)CC2)C1 [Compound 239, N-(2,2-difluoroethyl)-5-fluoro-2-((4-(7-(((2S,5R)-5-((N-(2-hydroxyethyl)-N-methylsulfamoyl)amino)tetrahydro-2H-pyran-2-yl)methyl)-2,7-diazaspiro[3.5]nonan-2-yl)pyrimidin-5-yl)oxy)-N-isopropylbenzamide] | < 1 nM | +++ (“+++” means ≥66%) |  |  | 
19 | CC(C)N(CC(F)F)C(=O)c1cc(F)ccc1Oc1cncnc1N1CC2(CCN(C[C@@H]3CC[C@@H](NS(N)(=O)=O)CO3)CC2)C1 [Compound 240, N-(2,2-Difluoroethyl)-5-fluoro-N-isopropyl-2-((4-(7-(((2S,5R)-5-(sulfamoylamino)tetrahydro-2H-pyran-2-yl)methyl)-2,7-diazaspiro[3.5]nonan-2-yl)pyrimidin-5-yl)oxy)benzamide] | < 1 nM | +++ (“+++” means ≥66%) |  |  | ≥ 50000 nM

Source: patent US11919901B2 (Syndax Pharmaceuticals, Inc., priority 2021, dated 2024)
